Paper PMC5966831 (Biochemistry, 2013)
Where two headings read alike, the source gives them in different places.

B1: E. coli RBP: Escherichia coli ribose binding protein (protein, UniProt P02925 26-296, looked up)
Ribose import binding protein …: KDTIALVVSTLNNPFFVSLKDGAQKEADKLGYNLVVLDSQNNPAKELANVQDLTVRGTKILLINPTDSDAVGNAVKMANQANIPVITLDRQATKGEVVSHIASDNVLGGKIAGDYIAKKAGEGAKVIELQGIAGTSAARERGEGFQQAVAAHKFNVLASQPADFDRIKGLNVMQNLLTAHPDVQAVFAQNDEMALGALRALQTAGKSDVMVVGFDGTPDGEKAVNDGKLAATIAQLPDQIGAKGVETADKVLKGEKVQAKYPVDLKLVVKQ

How the values were obtained:
AFF186 [1] = biological target: T1, AFF186 (Caldanaerobacter subterraneus, UniProt Q8RD41, C137S/D254S/INS221C/L167D); type: binding; settings: SD, n = 3
AFF210 [2] = biological target: T2, AFF210 (Caldanaerobacter subterraneus, UniProt Q8RD41, C137S/D254S/INS245C/L167D); assay: Equilibrium fluorescence; type: binding
N′60 = N′60 (Caldanaerobacter subterraneus, UniProt Q8RD41, C137S/L167D); type: binding; settings: SD, n = 3
AFF186 [3] = biological target: T1, AFF186; assay: Equilibrium fluorescence; type: binding
N′186 = N′186 (Caldanaerobacter subterraneus, UniProt Q8RD41, C137S/L167D); type: binding; settings: SD, n = 3
AFF70 [4] = biological target: T3, AFF70 (Caldanaerobacter subterraneus, UniProt Q8RD41, C137S/F53A/F54A/INS105C/L167D); type: binding; settings: SD, n = 3
AFF70 [5] = biological target: T3, AFF70; assay: Equilibrium fluorescence; type: binding
AFF210 [6] = biological target: T2, AFF210; type: binding; settings: SD, n = 3
N′70 = N′70 (Caldanaerobacter subterraneus, UniProt Q8RD41, C137S/L167D); type: binding; settings: SD, n = 3
N′210 = N′210 (Caldanaerobacter subterraneus, UniProt Q8RD41, C137S/L167D); type: binding; settings: SD, n = 3
[7] = Thermal denaturation monitored by circular dichroism; type: physicochemical; settings: E. coli RBP and its permutants, apo forms, Figure S7

| Molecule | Kd (AFF186 [1]) [nM] | Kd (AFF210 [2]) [nM] | Kd (N′60) [nM] | Kd (AFF186 [3]) [nM] | Kd (N′186) [nM] | Kd (AFF70 [4]) [nM] | Kd (AFF70 [5]) [nM] | Kd (AFF210 [6]) [nM] | Kd (N′70) [nM] | Kd (N′210) [nM] | Tm [7] [°C] |
| --- | --- | --- | --- | --- | --- | --- | --- | --- | --- | --- | --- |
| OC1OC[C@@H](O)[C@@H](O)[C@H]1O (stereo partly drawn) [ribose, D-ribose] | 58.8 ± 0.17 | 4200 | 21.3 ± 1.1 | 12300 | 38.1 ± 0.4 | 46.6 ± 5.5 | 4200 | 26.1 ± 1.5 | 2740 ± 240 | 21.6 ± 1.4 | – |
| B1 | – | – | – | – | – | – | – | – | – | – | 55 |
